Experimental data: US8425885B2, “Substituted 3-(phenoxymethyl) benzyl amines and personal care compositions” (Conopco, Inc., priority 2009, dated 2013)

These compounds were tested on Melanoderm tissue equivalent model MEL-300 (MatTek) containing melanocytes obtained from dark skin individuals (assay: Melanoderm tissue equivalent melanin content (inhibition of melanogenesis)). Conditions: Melanocyte, 336 h, total melanin content vs DMSO vehicle, 5 μM in maintenance medium, 14 days.
Type: cell-based
Experimental: Melanoderm tissue equivalent model MEL-300 (MatTek: Ashland, Mass.) containing melanocytes obtained from dark skin individuals were cultured as per supplier instructions. Components were added to the maintenance medium phase (no topical treatments) at a final concentration of 5 μM for 14 days at which time the experiment was terminated and the tissues assessed for melanin content. Medium and treatments were changed three times per week. DMSO was utilized as the vehicle control and all treatments were performed at least in duplicate.
For quantification of total melanin, each Melanoderm was placed into an individual Eppendorf tube (2 mL) into which 250 μL of Solvable™ tissue solubilizer (Packard Bioscience Co., Cat#6NE9100) was added. Each tube was vortexed and incubated at 60° C. for 18 hours. Each sample was then centrifuged (5-minutes at 13,000 RPMs) to remove any particulates. 100 or 200 μL of supernatant were transferred to a 96 well microtiter plate and the absorbance read at 490 nm. Total melanin content was calculated from a standard curve using synthetic melanin (Sigma Cat# M8631). Data was analyzed for significance using the t-test in Microsoft Excel to generate p-values (p-values less than 0.01 represent 99% confidence, p values of 0.05 represent 95% confidence both of which are statistically significant).

SMILES	inhibition at 5 µM [%]
CCN(CC)Cc1cccc(COc2ccccc2)c1 [5a, N-(3-(phenoxymethyl)benzyl)-N-ethylethanamine]	14.4
CCN(CC)Cc1cccc(COc2ccccc2C)c1 [5b, N-(3-((o-tolyloxy)methyl)benzyl)-N-ethylethanamine]	27.1
CCc1ccccc1OCc1cccc(CN(CC)CC)c1 [5c, N-(3-((2-ethylphenoxy)methyl)benzyl)-N-ethylethanamine]	30.7
CCN(CC)Cc1cccc(COc2ccccc2OC)c1 [5d, N-(3-((2-methoxyphenoxy)methyl)benzyl)-N-ethylethanamine]	9.3
COc1ccccc1OCc1cccc(CNC(C)C)c1 [5e, N-(3-((2-methoxyphenoxy)methyl)benzyl)propan-2-amine]	14.7
CCN(C)Cc1cccc(COc2ccccc2OC)c1 [5f, N-(3-((2-methoxyphenoxy)methyl)benzyl)-N-methylethanamine]	20.8
CCN(CC)Cc1cccc(COc2ccccc2C(C)C)c1 [5g, N-(3-((2-isopropylphenoxy)methyl)benzyl)-N-ethylethanamine]	29.9
CCN(CC)Cc1cccc(COc2cccc3ccccc23)c1 [5h, N-(3-((naphthalen-1-yloxy)methyl)benzyl)-N-ethylethanamine]	33.5
CN(C)Cc1cccc(COc2cccc3ccccc23)c1 [5i, N,N-dimethyl(3-((naphthalen-1-yloxy)methyl)phenyl)methanamine]	25.3
CC(C)NCc1cccc(COc2cccc3ccccc23)c1 [5j, N-(3-((naphthalen-1-yloxy)methyl)benzyl)propan-2-amine]	26.5
CCc1ccc(OCc2cccc(CN(C)C)c2)cc1 [5k]	-0.6
CCc1ccccc1OCc1cccc(CN(C)C)c1 [5m, (3-((2-ethylphenoxy)methyl)phenyl)-N,N-dimethylmethanamine]	31.6
CCc1ccccc1OCc1cccc(CNC)c1 [5q, (3-((2-ethylphenoxy)methyl)phenyl)-N-methylmethanamine]	42.3
CCNCc1cccc(COc2ccccc2CC)c1 [5r, N-(3-((2-ethylphenoxy)methyl)benzyl)ethanamine]	33.9
NCc1cccc(COc2cccc3ccccc23)c1 [5s, (3-((naphthalen-1-yloxy)methyl)phenyl)methanamine]	4
CNCc1cccc(COc2cccc3ccccc23)c1 [5t, N-methyl(3-((naphthalen-1-yloxy)methyl)phenyl)methanamine]	27.1
CCNCc1cccc(COc2cccc3ccccc23)c1 [5u, N-((3-((naphthalen-1-yloxy)methyl)phenyl)methyl)ethanamine]	42.5
